The results in this text go back to US9440957B2, “Compounds and compositions for modulating EGFR Activity” (Novartis AG, priority 2012, dated 2016).

Like-named read-outs stand apart in the source and are kept apart here.

Assay [1] deals with H3255 (EGFR L858R) (Homo sapiens, UniProt P00533, L858R). Put plainly: EGFR target modulation in H3255 cell line (phospho-EGFR Y1173 ELISA). The assay is classed as cell-based. An outline of the steps: (§1)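 3 h compound exposure of cells in 10% FBS/RPMI, 37 °C; lysis on ice 20 min; lysate captured overnight at 4 °C on anti-EGFR-coated plates; anti-rabbit-HRP, chemiluminescence.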
Background: An ELISA detects its analyte on a solid surface through an enzyme-linked reagent.

For assay [2], the target named is HEKn (EGFR WT) (Homo sapiens, UniProt P00533). Put plainly: EGFR target modulation in HEKn (EGFR-WT) cell line (phospho-EGFR Y1173 ELISA). The assay is classed as cell-based. Conditions: value outside parentheses. An outline of the steps: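 Read-out was Y1173 phosphorylation, measured by chemiluminescent ELISA with anti-EGFR capture of lysates. HEKn keratinocytes (wild-type EGFR) were treated with compound for 3 h.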
HEKn (EGFR WT), sequence (P00533 25-1210): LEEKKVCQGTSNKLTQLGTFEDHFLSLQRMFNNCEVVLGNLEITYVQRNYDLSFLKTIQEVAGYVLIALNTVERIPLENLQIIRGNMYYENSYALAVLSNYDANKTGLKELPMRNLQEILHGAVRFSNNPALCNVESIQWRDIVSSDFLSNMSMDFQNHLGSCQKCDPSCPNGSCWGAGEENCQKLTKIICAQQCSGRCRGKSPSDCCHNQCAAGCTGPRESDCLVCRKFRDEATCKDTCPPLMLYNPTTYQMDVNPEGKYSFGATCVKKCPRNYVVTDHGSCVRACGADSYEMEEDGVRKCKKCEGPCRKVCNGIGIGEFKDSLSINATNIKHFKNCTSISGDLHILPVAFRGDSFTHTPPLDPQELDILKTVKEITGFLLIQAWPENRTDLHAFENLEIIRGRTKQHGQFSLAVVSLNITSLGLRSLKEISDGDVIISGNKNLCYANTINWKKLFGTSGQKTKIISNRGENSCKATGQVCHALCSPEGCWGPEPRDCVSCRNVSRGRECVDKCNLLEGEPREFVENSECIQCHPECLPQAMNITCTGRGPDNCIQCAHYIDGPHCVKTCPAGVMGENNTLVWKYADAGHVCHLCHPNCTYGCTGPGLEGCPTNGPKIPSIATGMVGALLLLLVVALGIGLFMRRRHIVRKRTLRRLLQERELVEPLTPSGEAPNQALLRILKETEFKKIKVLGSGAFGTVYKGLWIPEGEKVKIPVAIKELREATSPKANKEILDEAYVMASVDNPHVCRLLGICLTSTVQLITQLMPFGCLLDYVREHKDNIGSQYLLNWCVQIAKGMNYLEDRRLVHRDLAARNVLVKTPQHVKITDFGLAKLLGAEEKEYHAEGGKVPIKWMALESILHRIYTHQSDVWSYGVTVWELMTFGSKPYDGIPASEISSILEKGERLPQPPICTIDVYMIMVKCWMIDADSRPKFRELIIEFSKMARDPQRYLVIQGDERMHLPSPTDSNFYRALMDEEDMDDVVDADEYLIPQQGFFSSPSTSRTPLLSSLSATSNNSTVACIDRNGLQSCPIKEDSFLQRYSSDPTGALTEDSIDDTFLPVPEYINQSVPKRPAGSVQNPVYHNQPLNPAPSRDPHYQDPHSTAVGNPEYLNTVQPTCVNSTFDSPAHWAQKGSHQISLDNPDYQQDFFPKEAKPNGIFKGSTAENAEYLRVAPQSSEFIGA

Assay [3] addresses T1, EGFR(L858R/T790M) (Homo sapiens, UniProt P00533, L858R/T790M).
T1 construct: purchased from Carna (GST-a.a. 669-1210)
Put plainly: EGFR biochemical assay (HTRF), IC50 determinations. A digest of the protocol: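 Two formats were run: compound preincubated at room temperature with enzyme and biotin-TK peptide before ATP starts the reaction, or no preincubation with enzyme added last. Reactions ran 60 min at room temperature and were stopped with EDTA. Phosphopeptide was read by HTRF (PT66K/SAXL, 1 h).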

Assay [4] concerns the target HCC827 (Del E746-A750) (Homo sapiens, UniProt P00533, DEL746-750). Put plainly: EGFR target modulation in HCC827 cell line (phospho-EGFR Y1173 ELISA). The assay is classed as cell-based. The protocol:
EGFR Target Modulation in H1975, H3255 and HCC827 Cell Lines Tissue Culture. Cells were maintained in 10% FBS/RPMI supplemented with 100 μg/ml Penicillin/Streptomycin (Hyclone #SH30236.01). […] The cells were allowed to incubate overnight in a 37° C., 5% CO2 humidified tissue culture incubator. […] The serial diluted compounds were transferred to the plate containing cells by using a 50 nl Pin Head device (Perkin Elmer) and the cells were placed back in the incubator for 3 hours. Phospho-EGFR ([…]) Target Modulation Assay. The media was reduced to 20 ul using a Bio-Tek ELx 405 SelectTM plate washer. […] The plates were shaken at 4° C. for 20 minutes. An aliquot of 25 ul from each well was transferred to pEGFR(Y1173) ELISA plates for analysis. Phospho-EGFR ([…]) ELISA. Solid white high-binding ELISA plates (Greiner #781074) were coated with 5 ug/ml anti-EGFR capture antibody (R&D Systems #AF231) overnight in 50 mM carbonate/bicarbonate pH 9.5 buffer. Plates were blocked with 1% BSA (Sigma #A7030) in PBS for 1 hour at room temperature. Wash steps were carried out with a Bio-Tek ELx405 SelectTM using 4 cycles of 100 ul TBS-T (20 mM Tris, 137 mM NaCl, 0.05% Tween-20) per well. […] Lysis was allowed to occur for 20 minutes on ice. A 25 ul aliquot was added to each well of the blocked ELISA plate and incubated overnight at 4° C. with gentle shaking. […] After washing, 1:2,000 anti-rabbit-HRP (Cell Signaling #7074) in 0.2% BSA/TBS-T was added and incubated for 1 hour at room temperature. Chemiluminescent detection was carried out with SuperSignal ELISA Pico substrate (ThermoScientific #37069). Signal was read on EnVision plate reader using built-in UltraLUM setting. Data Analysis. Control cells treated with EGF were set to 100% maximum response. […] With these parameters, the IC50's for each compound in each cell line was calculated using non-linear curve fitting analysis.

Assay [5] addresses H1975 (EGFR L858/T790M) (Homo sapiens, UniProt P00533, L858R/T790M). Put plainly: EGFR target modulation in H1975 cell line (phospho-EGFR Y1173 ELISA). In kind it is cell-based. A digest of the protocol: as §1
The target of assay [6] is human EGFR L858R/T790M (NIH/3T3 cells) (Homo sapiens, UniProt P00533, L858R/T790M). Nature of the assay: EGFR target modulation in engineered NIH/3T3 cell lines (phospho-EGFR Y1068 AlphaLISA), EGFR L858R/T790M. In kind it is cell-based. As to conditions: engineered NIH/3T3 cells, read-out: NIH3T3 IC50 (μM) EGFR (L858R/T790M). An outline of the steps: (§2)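 Engineered NIH/3T3 cells expressing EGFR variants treated 3 h at 37 °C with 12-point 1:3 compound series (top stock 10 μM); only WT cells stimulated with 50 ng/ml EGF for 5 min before lysis. Phospho-Y1068 measured by AlphaLISA with total-EGFR antibody; IC50 from non-linear fitting.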
Background: Alpha assays give light when donor and acceptor beads are brought close together.

For assay [7], the target named is human EGFR WT (NIH/3T3 cells, EGF-induced) (Homo sapiens, UniProt P00533). Put plainly: EGFR target modulation in engineered NIH/3T3 cell lines (phospho-EGFR Y1068 AlphaLISA), EGFR WT. In kind it is cell-based. Conditions: engineered NIH/3T3 cells, read-out: NIH3T3 IC50 (μM) EGFR (WT). An outline of the steps:
as §2

The target of assay [8] is human EGFR L858R (NIH/3T3 cells) (Homo sapiens, UniProt P00533, L858R). Put plainly: EGFR target modulation in engineered NIH/3T3 cell lines (phospho-EGFR Y1068 AlphaLISA), EGFR L858R. In kind it is cell-based. Conditions: engineered NIH/3T3 cells, read-out: NIH3T3 IC50 (μM) EGFR (L858R). An outline of the steps:
as §2

Setting [9] is: EGFR (L858R/T790M) with 90 min pre-incubation, read-out: IC50 (μM) Column B.
The mark [10] stands for this setting: EGFR (L858R/T790M) with no pre-incubation, read-out: IC50 (μM) Column A.

human EGFR WT (NIH/3T3 cells, EGF-induced), sequence (P00533 25-1210): as above
HCC827 (Del E746-A750), sequence (P00533 with tags, fused parts or gaps DEL746-750): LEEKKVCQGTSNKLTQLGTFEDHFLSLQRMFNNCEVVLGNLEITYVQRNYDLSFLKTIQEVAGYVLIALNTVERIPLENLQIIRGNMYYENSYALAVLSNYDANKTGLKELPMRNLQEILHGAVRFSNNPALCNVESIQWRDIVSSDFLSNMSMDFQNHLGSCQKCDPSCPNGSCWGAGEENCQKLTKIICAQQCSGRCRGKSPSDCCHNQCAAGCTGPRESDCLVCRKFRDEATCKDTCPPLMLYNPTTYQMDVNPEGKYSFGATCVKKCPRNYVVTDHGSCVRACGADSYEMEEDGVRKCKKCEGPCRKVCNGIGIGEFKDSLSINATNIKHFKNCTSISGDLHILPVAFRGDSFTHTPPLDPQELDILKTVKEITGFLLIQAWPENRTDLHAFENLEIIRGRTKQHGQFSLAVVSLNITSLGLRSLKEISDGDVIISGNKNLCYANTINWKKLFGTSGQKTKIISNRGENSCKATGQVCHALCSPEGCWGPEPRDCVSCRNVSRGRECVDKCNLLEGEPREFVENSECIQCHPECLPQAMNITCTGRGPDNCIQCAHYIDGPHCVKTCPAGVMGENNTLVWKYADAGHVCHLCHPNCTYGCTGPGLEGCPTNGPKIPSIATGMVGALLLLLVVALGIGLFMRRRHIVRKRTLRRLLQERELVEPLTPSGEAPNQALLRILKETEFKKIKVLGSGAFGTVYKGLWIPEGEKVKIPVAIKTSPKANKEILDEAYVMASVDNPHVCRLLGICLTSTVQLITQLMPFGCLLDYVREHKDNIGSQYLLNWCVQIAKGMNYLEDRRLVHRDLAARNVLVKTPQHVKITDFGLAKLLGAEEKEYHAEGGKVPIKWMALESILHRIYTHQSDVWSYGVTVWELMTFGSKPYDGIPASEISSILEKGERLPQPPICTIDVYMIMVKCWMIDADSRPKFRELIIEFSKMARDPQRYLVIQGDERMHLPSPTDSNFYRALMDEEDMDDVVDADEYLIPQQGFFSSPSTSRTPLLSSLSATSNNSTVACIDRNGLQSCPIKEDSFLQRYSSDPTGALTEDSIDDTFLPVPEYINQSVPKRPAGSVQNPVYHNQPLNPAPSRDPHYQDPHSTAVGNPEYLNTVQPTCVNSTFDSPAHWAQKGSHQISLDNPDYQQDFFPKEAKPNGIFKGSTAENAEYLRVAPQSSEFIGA
T1 sequence (P00533 669-1210 T790M/L858R): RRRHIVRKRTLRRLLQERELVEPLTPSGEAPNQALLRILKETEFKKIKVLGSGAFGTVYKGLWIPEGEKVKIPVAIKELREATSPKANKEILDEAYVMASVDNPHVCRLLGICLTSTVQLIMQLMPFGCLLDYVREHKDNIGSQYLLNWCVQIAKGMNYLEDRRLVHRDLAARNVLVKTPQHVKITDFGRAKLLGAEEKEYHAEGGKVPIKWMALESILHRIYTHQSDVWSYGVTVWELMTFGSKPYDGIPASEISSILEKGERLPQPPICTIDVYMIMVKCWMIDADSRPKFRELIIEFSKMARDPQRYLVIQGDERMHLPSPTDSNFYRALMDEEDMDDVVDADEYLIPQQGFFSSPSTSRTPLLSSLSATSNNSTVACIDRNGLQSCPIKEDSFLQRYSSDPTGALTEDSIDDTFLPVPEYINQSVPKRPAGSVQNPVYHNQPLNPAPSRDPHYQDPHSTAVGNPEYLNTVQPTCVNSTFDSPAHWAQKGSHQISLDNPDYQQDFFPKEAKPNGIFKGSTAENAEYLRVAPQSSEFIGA

With `C=CC(=O)N1CCCC[C@@H](n2c(NC(=O)c3cc(C)nc(C)c3)nc3cc(CN4CC[C@@H](OC)C4)cc(C)c32)C1` [Example 17-157], the IC50 in assay [1] was 7 nM; in assay [2], 308 nM; in assay [3] (setting [9]), < 0.001 µM; in assay [3] (setting [10]) it was 0.003 µM; in assay [4], 2 nM; in assay [5], 2 nM.

As to `C=CC(=O)N1CCCC[C@@H](n2c(NC(=O)c3cc(C)nc(C)c3)nc3cc(CN4CC[C@H](OC)C4)cc(C)c32)C1` [Example 17-156], the IC50 in assay [1] is 2 nM; in assay [2] it was 128 nM; in assay [3] (setting [9]) it was < 0.001 µM; in assay [3] (setting [10]), 0.001 µM; in assay [4], < 1 nM; in assay [5], < 1 nM.

On to `O=C(Nc1nc2cccc(Cl)c2n1[C@@H]1CCCCN(C(=O)/C=C/CN2CCCC2)C1)c1ccnnc1` [Example 3-8], for which the IC50 in assay [1] was 10 nM; in assay [2] it was 194 nM; in assay [3] (setting [9]) it was < 0.001 µM; in assay [3] (setting [10]), 0.009 µM; in assay [4], 4 nM; in assay [5], 9 nM.

Turning to `C/C=C/C(=O)N1CCCC[C@@H](n2c(NC(=O)c3ccnc(C)c3)nc3cc(CN4CCCC4)cc(C)c32)C1` [Example 17-164], the IC50 is 73 nM in assay [1]; 2270 nM in assay [2]; 0.005 µM in assay [3] (setting [9]); 0.055 µM in assay [3] (setting [10]); 9 nM in assay [4]; 58 nM in assay [5].

Regarding `C/C=C/C(=O)N1CCCC[C@@H](n2c(NC(=O)c3ccnc(C)c3)nc3cc(CN4CC[C@@H](OC)C4)cc(C)c32)C1` [Example 17-163], the IC50 in assay [1] stood at 51 nM; in assay [2], 1260 nM; in assay [3] (setting [9]) it was 0.005 µM; in assay [3] (setting [10]) it was 0.07 µM; in assay [4], 11 nM; in assay [5], 43 nM.

Regarding `Cc1cc(C(=O)Nc2nc3cccc(C)c3n2[C@@H]2CCCCN(C(=O)/C=C/CN3CCCC3)C2)ccn1` [Example 3-9], the IC50 in assay [1] was 12 nM; in assay [2], 590 nM; in assay [3] (setting [9]), < 0.001 µM; in assay [3] (setting [10]), 0.008 µM; in assay [4] it was 5 nM; in assay [5], 7 nM.

As for `C/C=C/C(=O)N1CCCC[C@@H](n2c(NC(=O)c3cc(C)nc(C)c3)nc3cc(CN4CC[C@H](F)C4)cc(C)c32)C1` [Example 17-165], the IC50 was found to be 50 nM in assay [1]; 4500 nM in assay [2]; 0.004 µM in assay [3] (setting [9]); 0.054 µM in assay [3] (setting [10]); 31 nM in assay [4]; 39 nM in assay [5].

On to `COc1cc2nc(NC(=O)c3ccnc(C)c3)n([C@@H]3CCCCN(C(=O)/C=C/CN(C)C)C3)c2cc1Cl` [Example 17-178], for which the IC50 in assay [1] was 106 nM; in assay [2] it was 4200 nM; in assay [3] (setting [9]) it was 0.006 µM; in assay [3] (setting [10]) it was 0.097 µM; in assay [4], 38 nM; in assay [5] it was 117 nM.

Consider `C/C=C/C(=O)N1CCCC[C@@H](n2c(NC(=O)c3cc(C)nc(C)c3)nc3cc(CN4CC[C@H](OC)C4)cc(C)c32)C1` [Example 17-162], for which the IC50 in assay [1] worked out at 145 nM; in assay [2], 4600 nM; in assay [3] (setting [9]), 0.004 µM; in assay [3] (setting [10]), 0.054 µM; in assay [4] it was 23 nM; in assay [5], 38 nM.

On to `CC(C)Oc1cccc2nc(NC(=O)c3ccnnc3)n([C@@H]3CCCCN(C(=O)/C=C/CN(C)C)C3)c12` [Example 17-85], for which the IC50 in assay [6] came out at 0.02 µM; in assay [1] it was 111 nM; in assay [7], 0.6 µM; in assay [2], 2080 nM; in assay [3] (setting [9]) it was 0.003 µM; in assay [3] (setting [10]) it was 0.038 µM. In addition, the IC50 in assay [8] was determined as 0.043 µM; in assay [5] it was 38 nM.

`Cc1cccc2nc(NC(=O)c3cc(F)c(F)c(F)c3)n(C3CCCCN(C(=O)/C=C/CN(C)C)C3)c12` (stereo not shown) [Example 17-33]: the IC50 in assay [6] is 0.005 µM; in assay [1], 65 nM; in assay [7] it was 0.224 µM; in assay [2], 259 nM; in assay [3] (setting [9]) it was < 0.001 µM; in assay [3] (setting [10]) it was 0.008 µM. In addition, the IC50 stood at 0.002 µM in assay [8] and 5 nM in assay [5].

For the compound `COc1cc(C(=O)Nc2nc3cccc(C)c3n2[C@@H]2CCCCN(C(=O)/C=C/CN(C)C)C2)cc(Cl)n1` [Example 17-75], the IC50 in assay [6] is 0.007 µM; in assay [1], 85 nM; in assay [7] it was 0.218 µM; in assay [2], 3140 nM; in assay [3] (setting [9]), < 0.001 µM; in assay [3] (setting [10]), 0.017 µM. The results for the IC50 in assay [8] and in assay [5] were 0.025 µM and 26 nM, respectively.

As for `Cc1cccc2nc(NC(=O)c3ccnc(-c4ccccc4)c3)n([C@@H]3CCCCN(C(=O)/C=C/CN(C)C)C3)c12` [Example 17-76], the IC50 was < 0.001 µM in assay [6]; 1 nM in assay [1]; 0.004 µM in assay [7]; 14 nM in assay [2]; < 0.001 µM in assay [3] (setting [9]); < 0.001 µM in assay [3] (setting [10]). Also, the IC50 is < 0.001 µM in assay [8] and < 1 nM in assay [5].

On to `Cc1cccc2nc(NC(=O)c3ccc(F)c(F)c3)n(C3CCCCN(C(=O)/C=C/CN(C)C)C3)c12` (stereo not shown) [Example 17-30], for which the IC50 in assay [6] is 0.004 µM; in assay [1], 37 nM; in assay [7] it was 0.167 µM; in assay [2] it was 313 nM; in assay [3] (setting [9]) it was < 0.001 µM; in assay [3] (setting [10]), 0.005 µM. Further, the results for the IC50 in assay [8] and in assay [5] were 0.003 µM and 10 nM, respectively.

As to `C=CC(=O)N1CCC[C@@H](n2c(NC(=O)c3cccc(C(F)(F)F)c3)nc3cc(CN4CCCCC4)ccc32)C1` [Example 17-118], the IC50 was 0.005 µM in assay [6]; > 10000 nM in assay [1]; > 10 µM in assay [7]; > 10000 nM in assay [2]; 0.005 µM in assay [3] (setting [9]); 0.68 µM in assay [3] (setting [10]). Also, the IC50 worked out at 0.156 µM in assay [8] and 640 nM in assay [5].

Consider `Cc1ccccc1-c1cc(C(=O)Nc2nc3cccc(C)c3n2[C@@H]2CCCCN(C(=O)/C=C/CN(C)C)C2)ccn1` [Example 17-80], for which the IC50 was < 0.001 µM in assay [6]; < 1 nM in assay [1]; 0.002 µM in assay [7]; 4 nM in assay [2]; < 0.001 µM in assay [3] (setting [9]); < 0.001 µM in assay [3] (setting [10]). Further, the IC50 in assay [8] was < 0.001 µM; in assay [5], < 1 nM.

Turning to `Cc1cccc2nc(NC(=O)c3ccnnc3)n([C@@H]3CCCCN(C(=O)C#CCN(C)C)C3)c12` [Example 17-87], the IC50 in assay [6] is < 0.001 µM; in assay [1], < 1 nM; in assay [7], 0.013 µM; in assay [2], 37 nM; in assay [3] (setting [9]), < 0.001 µM; in assay [3] (setting [10]), < 0.001 µM. Also, the IC50 in assay [8] is < 0.001 µM; in assay [5], 2 nM.
